By IC50 is commonly meant the point on the concentration scale where inhibition reaches its midpoint. The low end stands for higher potency, the high end for lower potency. One may read the melting point as the temperature of the solid-liquid transition.

The subject of data set [1] is HeLa cervical carcinoma cells. As to the kind of experiment: Cellular cytotoxicity assay (Alamar Blue), HeLa. The data set is classed as cell-based. The note with it: Homo sapiens, 72 h, printed only as range over the group of listed compounds. Here is the method:
The anti-proliferative activity of the histone deacetylase inhibitory compounds as described herein, was evaluated using the following cell lines: HeLa and HeLa-KB (cervical carcinoma), H460 (non small cell lung cancer), A549 (non-small cell lung cancer), MCF7 (breast carcinoma), MCF10A (normal, non tumorigenic breast epithelial), MDA-MB468 (breast carcinoma), MDA-MB435 (breast carcinoma), MDA-MB231 (breast carcinoma), SKBR-3 (breast carcinoma), SKOV-3 (ovarial carcinoma), A-2780 (ovarial carcinoma), RKO (colon carcinoma), HCT-15 (colon carcinoma), HCT-116 (colon carcinoma), PC3 (prostate carcinoma), BPH1 (benign prostate hyperplasia), AsPC1 (pancreatic carcinoma), Cal27 (tongue carcinoma), A-431 (vulva carcinoma), Hec1A (endometrial carcinoma), Saos-2 (osteosarcoma), U87MG (glioblastoma), WM266-4 (melanoma), K562 (chronic myeloid carcinoma), EOL1 (acute hypereosinophilic myeloid leukemia), CCRF-CEM and CCRF-CEM VCR1000 (acute lymphoblastic leukemia sensitive and resistant towards Vincristine). For quantification of cellular proliferation/living cells the Alamar Blue (Resazurin) cell viability assay was applied (O'Brien et al. Eur J Biochem 267, 5421-5426, 2000). […] After 4 hours incubation at 37° C. the fluorescence was measured at an extinction of 544 nm and an emission of 590 nm. […] Viabilities were expressed as % values. […]
(Alamar Blue is a resazurin reagent that responds to reducing activity.)

A further data set has as its system A549 cell line. The data set is described as follows: Combination experiment with Trail. It counts as cell-based. The note with it: example at about its IC50 with Trail, 4 h pretreatment, 72 h total. Here is the method:
A549 non-small cell lung cancer, MDA-MB468 breast cancer and […] colorectal cancer cell lines were pretreated with the examples for 4 h before adding the chemotherapeutic agents or Trail and further incubation for 72 h total. The IC50 values of these combinations were determined from concentration-effect curves and compared to IC50 values of cell treated with the anti-cancer agent only.

Data set [2] relates to RKO proliferating colon carcinoma cells. As to the kind of experiment: Cell-cycle dependent cytotoxicity, RKO exop21 system, proliferating. It counts as cell-based. The note with it: 72 h, given only as range over the listed compounds. As for the experimental part:
(§1) For determination of cell-cycle dependent cytotoxicity, the RKO exop21 cell system was applied (Schmidt et al. Oncogene 19: 2423-2429, 2000). Briefly, RKO cells with/without p21^waf1 expression (2×10^4 cells/well induced, 6×10^3 cells/well not induced) were treated with the examples for 72 h and metabolic activity quantified as described before. The expression of p21^waf1 was induced by treatment with Pronasterone A, causing a complete proliferation arrest of RKO cells in the G1 and G2 phases of the cell division cycle.

For data set [3], the system named is RKO arrested (p21waf1 expressed) colon carcinoma cells. The data set is described as follows: Cell-cycle dependent cytotoxicity, RKO exop21 system, arrested. The note with it: 72 h, p21waf1 induced, given only as range over the listed compounds. The data set is classed as cell-based. As for the experimental part: as §1

In data set [1], `Cc1ccc(S(=O)(=O)n2ccc(C=CC(=O)NO)c2)cc1` [Compound 1, (E)-N-Hydroxy-3-[1-(toluene-4-sulfonyl)-1-H-pyrrol-3-yl]-acrylamide] had an IC50 of 800 to 21600 nM.

Turning to `O=C(/C=C/c1ccn(S(=O)(=O)c2ccc(-c3ccccc3)cc2)c1)NO` [Compound 3, (E)-3-[1-(Biphenyl-4-sulfonyl)-1H-pyrrol-3-yl]-N-hydroxy-acrylamide], the “Effect of combination with Trail” value with A549 cell line is listed as “synergism is highly likely”. In addition, the IC50 in data set [2] is 150 to 5100 nM; in data set [3], 450 to 15000 nM.

With `CN(CCc1cc2ccccc2[nH]1)Cc1ccc(S(=O)(=O)n2ccc(/C=C/C(=O)NO)c2)cc1` [Compound 9, (E)-N-Hydroxy-3-(1-[4-(([2-(1H-indol-2-yl)-ethyl]-methyl-amino)-methyl)-benzenesulfonyl]-1H-pyrrol-3-yl)-acrylamide], in the data set with A549 cell line, the “Effect of combination with Trail” value is recorded as “synergism is highly likely”. The IC50 lay within 150 to 5100 nM in data set [2] and 450 to 15000 nM in data set [3].

Turning to `CN(C)Cc1ccc(S(=O)(=O)n2ccc(/C=C/C(=O)NO)c2)cc1` [Compound 10, (E)-3-[1-(4-Dimethylaminomethyl-benzenesulfonyl)-1H-pyrrol-3-yl]-N-hydroxy-acrylamide], in the data set with A549 cell line, the “Effect of combination with Trail” value is “synergism is highly likely”. Besides, the IC50 in data set [2] was in the range of 150 to 5100 nM; in data set [3] it was 450 to 15000 nM.

Turning to `NCc1ccc(S(=O)(=O)n2ccc(/C=C/C(=O)NO)c2)cc1` [Compound 17, (E)-3-[1-(4-Aminomethyl-benzenesulfonyl)-1H-pyrrol-3-yl]-N-hydroxy-acrylamide], the melting point lay in the range of 227 to 228.6 °C.

Consider `O=C(/C=C/c1ccn(S(=O)(=O)c2ccc(-c3ccncc3)cc2)c1)NO` [Compound 18, (E)-N-Hydroxy-3-[1-(4-pyridin-4-yl-benzenesulfonyl)-1H-pyrrol-3-yl]-acrylamide], for which the melting point was 219.3 to 221.4 °C.

In turn, `O=C(/C=C/c1ccn(S(=O)(=O)c2ccc(-c3cn[nH]c3)cc2)c1)NO` [Compound 19, (E)-N-Hydroxy-3-{1-[4-(1H-pyrazol-4-yl)-benzenesulfonyl]-1H-pyrrol-3-yl}-acrylamide] registered a melting point of 203.8 to 211.9 °C.

Regarding `Nc1ccccc1NC(=O)/C=C/c1ccn(S(=O)(=O)c2ccc(-c3ccncc3)cc2)c1` [Compound 20, (E)-N-(2-Amino-phenyl)-3-[1-(4-pyridin-4-yl-benzenesulfonyl)-1H-pyrrol-3-yl]-acrylamide], the melting point was in the range of 244.2 to 246.5 °C.

`Nc1ccccc1NC(=O)/C=C/c1ccn(S(=O)(=O)c2ccc(-c3cccnc3)cc2)c1` [Compound 21, (E)-N-(2-Amino-phenyl)-3-[1-(4-pyridin-3-yl-benzenesulfonyl)-1H-pyrrol-3-yl]-acrylamide] showed a melting point of 199.7 to 202.3 °C.

For the molecule `Nc1ccccc1NC(=O)/C=C/c1ccn(S(=O)(=O)c2ccc(-c3cn[nH]c3)cc2)c1` [Compound 22, (E)-N-(2-Amino-phenyl)-3-{1-[4-(1H-pyrazol-4-yl)-benzenesulfonyl]-1H-pyrrol-3-yl}-acrylamide], the melting point lay within 232.3 to 240.9 °C.

In the case of `O=C(/C=C/c1ccn(S(=O)(=O)c2cccc(-c3ccccc3)c2)c1)NO` [Compound 23, (E)-3-[1-(Biphenyl-3-sulfonyl)-1H-pyrrol-3-yl]-N-hydroxy-acrylamide], the melting point is 114 to 159.4 °C.

Take `O=C(/C=C/c1ccn(S(=O)(=O)c2ccc(-c3ccccn3)s2)c1)NO` [Compound 24, (E)-N-Hydroxy-3-[1-(5-pyridin-2-yl-thiophene-2-sulfonyl)-1H-pyrrol-3-yl]-acrylamide]: the “Effect of combination with Trail” value in the data set with A549 cell line was “synergism is highly likely”. In addition, the IC50 in data set [2] was 150 to 5100 nM; in data set [3] it was 450 to 15000 nM.

`O=C(/C=C/c1ccn(S(=O)(=O)c2ccc(-n3cccn3)cc2)c1)NO` [Compound 25, (E)-N-Hydroxy-3-[1-(4-pyrazol-1-yl-benzenesulfonyl)-1H-pyrrol-3-yl]-acrylamide] had a melting point of 160.7 to 166.6 °C.

The molecule `Nc1ccccc1NC(=O)/C=C/c1ccn(S(=O)(=O)c2ccc(-c3ccccn3)s2)c1` [Compound 26, (E)-N-(2-Amino-phenyl)-3-[1-(5-pyridin-2-yl-thiophene-2-sulfonyl)-1H-pyrrol-3-yl]-acrylamide] registered a melting point of 171.3 to 174.7 °C.

Molecule `O=C(/C=C/c1ccn(S(=O)(=O)c2ccc(CN3CCOCC3)cc2)c1)NO` [Compound 27, (E)-N-Hydroxy-3-[1-(4-morpholin-4-ylmethyl-benzenesulfonyl)-1H-pyrrol-3-yl]-acrylamide] registered a melting point of 168 to 170 °C.
